Data set [1] is described as follows: in vitro. Conditions: African green monkey.
The target in data set [2] is CYP2C19 (Homo sapiens, UniProt P33261). Description: CYP450 enzyme inhibition, CYP2C19.
Data set [3] has as its target T1, CYP1A2 (Homo sapiens, UniProt P05177).
T1 sequence (P05177 1-516): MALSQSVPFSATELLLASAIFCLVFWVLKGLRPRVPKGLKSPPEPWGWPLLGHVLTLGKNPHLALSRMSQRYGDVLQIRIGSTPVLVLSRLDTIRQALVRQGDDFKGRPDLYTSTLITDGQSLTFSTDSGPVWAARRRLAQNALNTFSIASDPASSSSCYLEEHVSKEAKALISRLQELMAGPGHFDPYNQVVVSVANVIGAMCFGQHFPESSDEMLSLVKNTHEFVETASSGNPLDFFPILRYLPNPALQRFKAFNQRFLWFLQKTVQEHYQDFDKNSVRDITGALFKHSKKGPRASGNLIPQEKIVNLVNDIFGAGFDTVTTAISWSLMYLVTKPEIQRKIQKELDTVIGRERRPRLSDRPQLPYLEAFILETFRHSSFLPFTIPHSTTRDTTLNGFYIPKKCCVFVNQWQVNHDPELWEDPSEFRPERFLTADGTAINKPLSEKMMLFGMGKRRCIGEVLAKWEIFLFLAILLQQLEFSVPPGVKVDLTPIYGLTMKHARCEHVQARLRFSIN
The data set can be described thus: CYP450 enzyme inhibition, CYP1A2.

Data set [4] in a line: Liver microsomal metabolic stability, rat. Format: in vitro ADME. Conditions: rat liver microsomes 0.5 mg protein/mL, 1 μM, 37 °C. On the procedure: (§1) Liver microsome samples (0.5 mg protein/mL) from mouse, rat, and human (Corning, Glendale, AZ, USA) in PBS and the test compound (final concentration 1 μM) were mixed. Following the addition of the NADPH regenerating solution (Corning), the samples were incubated at 37 °C for 30 min. The reaction was stopped by the addition of ice-cold acetonitrile, and the samples were centrifuged at 4000 rpm for 15 min.
In general terms: Liver microsomes are vesicles of endoplasmic reticulum, rich in cytochrome P450 enzymes.

Data set [5] deals with C57BL/6 mice. Description: Five-day repeated-dose toxicity study. Conditions: male and female mice; for clinical signs and animal death: IP 10 mg/kg, observed for 6 days; for approximately lethal dose: IP 10 mg/kg/day for 5 days.
Data set [6] in a line: Liver microsomal metabolic stability, mouse. Format: in vitro ADME. The following applies: mouse liver microsomes 0.5 mg protein/mL, 1 μM, 37 °C. On the procedure:
as §1

Data set [7] relates to SARS-CoV. The data set can be described thus: microbe, parasite or virus in culture. The following applies: Severe acute respiratory syndrome coronavirus, Vero, 24 h, read-out: IC50, SARS-CoV inhibition. The class given is cell-based.
Data set [8] in a line: Pharmacokinetic study in mice. Format: in vivo. The following applies: for Cmax / Tmax: n = 3. On the procedure: Seven-week-old male ICR mice were purchased from Nara Bio Co., Ltd. (Pyungtaek, Korea) and housed under 24 °C, 50% humidity, and 12 h day/night cycle conditions with access to standard chow and drinking water. Mice were acclimated for 1 week before the experiments. All animal procedures were approved by the KRICT Animal Care and Use Committee (ACUC approval number, DDP-7221). A total of 10 mg/kg of compound in a 5:40:55 ratio of DMSO:PEG400:DW was intraperitoneally or orally administered (n = 3). Blood samples were collected at 0.083–24 h after drug administration through the retro-orbital venous plexus and the plasma fraction was separated by centrifugation (15,000 rpm, 3 min). […] Mean plasma concentration–time data were calculated using noncompartmental methods (Phoenix WinNonlin software version 6.4; Pharsight Corporation, Mountain View, CA, USA).

Data set [9] can be described thus: Plasma stability, rat. The class given is in vitro ADME. Conditions: 37 °C. Here is the method: (§2) Animal plasma (Innovative Research, Inc., Novi, MI, USA) and test compounds (5 μM) were incubated at 37 °C for 4 h. To prevent the reaction, cold acetonitrile was added.
Data set [10] deals with SARS-CoV-2 Mpro (Severe acute respiratory syndrome coronavirus 2, UniProt P0DTD1). The data set can be described thus: SARS-CoV-2 Mpro activity assay (assay kit, fluorescence). Format: biochemical. On the procedure:
SARS-CoV-2 Mpro activity was measured using the SARS-CoV-2 Mpro assay kit (BPS Bioscience, San Diego, CA, USA) according to the manufacturer’s instructions. The samples were evaluated in duplicated, serially diluted concentrations. The fluorescence intensity of low binding, black, 96-well microtiter plates was detected at an excitation wavelength of 360 nm and an emission wavelength of 460 nm using a microplate spectrophotometer (Bio-Tek, Winooski, VT, USA).

The subject of data set [11] is NA of H5N1 influenza virus. The following applies: cited from earlier work.
Data set [12] in a line: Liver microsomal metabolic stability, human. Format: in vitro ADME. Conditions: human liver microsomes 0.5 mg protein/mL, 1 μM, 37 °C. On the procedure: as §1
In data set [13] the test system is SARS-CoV-2. The data set can be described thus: microbe, parasite or virus in culture. Format: cell-based. The following applies: Severe acute respiratory syndrome coronavirus 2, Vero, 24 h; read-out: IC50, SARS-CoV-2 inhibition.
The target in data set [14] is CYP2C9 (Homo sapiens, UniProt P11712). The data set can be described thus: CYP450 enzyme inhibition, CYP2C9.
Chain of CYP2C9 (P11712 whole entry): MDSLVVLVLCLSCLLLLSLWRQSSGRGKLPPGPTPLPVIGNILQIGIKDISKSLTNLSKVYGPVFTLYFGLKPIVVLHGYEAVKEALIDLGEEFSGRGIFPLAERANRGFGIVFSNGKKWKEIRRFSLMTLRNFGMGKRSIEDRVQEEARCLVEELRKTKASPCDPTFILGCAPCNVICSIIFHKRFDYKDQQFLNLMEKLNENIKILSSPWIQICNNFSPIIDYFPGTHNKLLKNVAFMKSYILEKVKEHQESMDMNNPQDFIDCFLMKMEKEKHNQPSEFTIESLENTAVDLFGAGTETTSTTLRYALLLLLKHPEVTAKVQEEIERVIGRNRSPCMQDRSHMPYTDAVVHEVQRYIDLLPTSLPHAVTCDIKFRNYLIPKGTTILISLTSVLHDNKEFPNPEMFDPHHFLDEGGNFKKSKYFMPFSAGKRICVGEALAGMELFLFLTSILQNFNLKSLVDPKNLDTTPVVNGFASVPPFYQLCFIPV
The target of data set [15] is CYP2D6 (Homo sapiens, UniProt P10635). Description: CYP450 enzyme inhibition, CYP2D6.
Chain of CYP2D6 (P10635 whole entry): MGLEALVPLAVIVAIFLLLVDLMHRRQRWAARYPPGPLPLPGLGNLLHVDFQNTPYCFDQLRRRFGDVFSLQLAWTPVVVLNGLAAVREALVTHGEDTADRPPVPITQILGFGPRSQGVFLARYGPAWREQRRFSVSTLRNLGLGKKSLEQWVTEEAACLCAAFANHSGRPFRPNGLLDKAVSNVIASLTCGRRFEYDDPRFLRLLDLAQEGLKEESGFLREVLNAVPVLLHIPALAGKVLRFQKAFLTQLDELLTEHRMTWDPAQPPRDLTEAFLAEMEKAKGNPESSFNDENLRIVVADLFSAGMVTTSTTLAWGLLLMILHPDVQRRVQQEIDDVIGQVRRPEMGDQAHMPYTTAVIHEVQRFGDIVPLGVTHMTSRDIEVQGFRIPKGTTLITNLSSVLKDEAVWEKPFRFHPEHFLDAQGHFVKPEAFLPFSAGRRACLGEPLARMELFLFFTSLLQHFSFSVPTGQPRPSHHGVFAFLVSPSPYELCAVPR
Data set [16] can be described thus: Plasma stability, human. Format: in vitro ADME. The following applies: 37 °C, read-out: Plasma Stability (% Remaining), Hum. Here is the method:
as §2

The target in data set [17] is hERG K+ channel (Homo sapiens, UniProt Q12809). Description: hERG K+ channel automated planar patch clamp assay. In general terms: The hERG channel carries a current that helps repolarise heart muscle cells.
Chain of hERG K+ channel (Q12809 whole entry): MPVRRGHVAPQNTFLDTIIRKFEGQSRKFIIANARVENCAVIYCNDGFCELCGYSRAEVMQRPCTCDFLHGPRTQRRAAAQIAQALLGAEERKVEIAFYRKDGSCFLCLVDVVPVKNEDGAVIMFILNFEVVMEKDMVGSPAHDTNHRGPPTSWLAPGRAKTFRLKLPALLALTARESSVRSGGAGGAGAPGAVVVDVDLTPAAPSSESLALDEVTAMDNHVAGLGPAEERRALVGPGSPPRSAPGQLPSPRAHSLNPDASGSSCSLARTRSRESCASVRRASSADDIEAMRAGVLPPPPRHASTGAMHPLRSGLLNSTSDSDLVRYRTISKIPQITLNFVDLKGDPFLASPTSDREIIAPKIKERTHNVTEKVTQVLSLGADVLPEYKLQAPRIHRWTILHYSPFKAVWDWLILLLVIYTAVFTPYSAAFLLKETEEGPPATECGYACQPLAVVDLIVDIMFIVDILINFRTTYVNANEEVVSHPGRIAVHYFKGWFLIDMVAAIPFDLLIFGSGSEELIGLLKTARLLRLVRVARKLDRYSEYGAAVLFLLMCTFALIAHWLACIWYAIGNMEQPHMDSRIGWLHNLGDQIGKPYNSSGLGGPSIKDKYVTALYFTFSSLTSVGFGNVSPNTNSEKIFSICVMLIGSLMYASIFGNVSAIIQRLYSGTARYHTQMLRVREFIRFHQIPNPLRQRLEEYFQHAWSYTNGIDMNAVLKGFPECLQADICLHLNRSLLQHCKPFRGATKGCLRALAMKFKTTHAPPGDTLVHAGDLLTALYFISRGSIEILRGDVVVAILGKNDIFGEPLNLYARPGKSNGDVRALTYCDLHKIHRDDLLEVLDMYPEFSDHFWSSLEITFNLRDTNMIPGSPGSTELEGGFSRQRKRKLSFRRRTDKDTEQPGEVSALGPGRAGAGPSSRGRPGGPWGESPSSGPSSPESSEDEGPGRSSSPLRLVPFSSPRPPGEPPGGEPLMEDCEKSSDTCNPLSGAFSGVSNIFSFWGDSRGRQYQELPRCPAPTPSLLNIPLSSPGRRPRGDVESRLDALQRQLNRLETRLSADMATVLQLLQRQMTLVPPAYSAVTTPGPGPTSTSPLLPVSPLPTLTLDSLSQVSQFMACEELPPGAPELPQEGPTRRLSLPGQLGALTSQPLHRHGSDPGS
For data set [18], the system named is influenza virus. The following applies: read-out: IC50, anti-influenza virus activity; cited from earlier work.
The test system of data set [19] is MERS-CoV. The data set can be described thus: microbe, parasite or virus in culture. Format: cell-based. Conditions: Middle East respiratory syndrome-related coronavirus, Vero, 24 h, read-out: IC50, MERS-CoV inhibition, Vero cells, 0.0625 MOI, 24 h post-infection, spike staining.
Data set [20] concerns the target CYP3A4 (Homo sapiens, UniProt P08684). The data set can be described thus: CYP450 enzyme inhibition, CYP3A4.
Where [21] appears, read: male, ICR, mouse, plasma, IP 10 mg/kg.
[22] abbreviates: male, ICR, mouse, plasma, PO 10 mg/kg.

Like-named read-outs stand apart in the source and are kept apart here.

Chain of CYP2C19 (P33261 whole entry): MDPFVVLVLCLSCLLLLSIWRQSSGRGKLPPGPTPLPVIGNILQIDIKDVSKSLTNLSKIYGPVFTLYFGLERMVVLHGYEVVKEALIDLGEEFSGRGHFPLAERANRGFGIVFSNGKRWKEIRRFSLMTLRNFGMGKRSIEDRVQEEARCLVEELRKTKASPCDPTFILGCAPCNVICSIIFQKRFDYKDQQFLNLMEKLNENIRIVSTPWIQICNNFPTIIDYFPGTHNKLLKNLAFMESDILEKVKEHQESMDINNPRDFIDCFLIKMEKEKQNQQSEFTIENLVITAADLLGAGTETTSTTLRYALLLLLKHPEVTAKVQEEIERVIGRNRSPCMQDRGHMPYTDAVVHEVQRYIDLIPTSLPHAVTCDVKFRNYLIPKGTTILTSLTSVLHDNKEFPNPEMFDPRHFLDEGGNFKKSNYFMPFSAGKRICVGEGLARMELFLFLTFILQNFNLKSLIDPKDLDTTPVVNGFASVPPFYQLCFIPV
Chain of CYP3A4 (P08684 whole entry): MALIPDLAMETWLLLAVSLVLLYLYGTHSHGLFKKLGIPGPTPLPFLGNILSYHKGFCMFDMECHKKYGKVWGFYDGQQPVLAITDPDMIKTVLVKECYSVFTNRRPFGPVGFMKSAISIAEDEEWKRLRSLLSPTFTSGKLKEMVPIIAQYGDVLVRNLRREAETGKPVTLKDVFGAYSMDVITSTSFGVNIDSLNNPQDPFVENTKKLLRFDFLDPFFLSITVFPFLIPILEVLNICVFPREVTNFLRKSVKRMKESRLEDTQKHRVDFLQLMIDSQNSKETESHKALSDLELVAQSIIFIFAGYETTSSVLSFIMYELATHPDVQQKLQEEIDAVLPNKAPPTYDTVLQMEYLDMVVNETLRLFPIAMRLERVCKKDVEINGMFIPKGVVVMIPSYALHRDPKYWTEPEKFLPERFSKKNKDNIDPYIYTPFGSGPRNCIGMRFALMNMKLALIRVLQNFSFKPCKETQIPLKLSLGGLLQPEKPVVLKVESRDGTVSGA

By IC50 is commonly meant the point on the concentration scale where inhibition reaches its midpoint. By AUC is commonly meant concentration integrated over time. What is called Cmax is the highest concentration seen after dosing. For orientation: Tmax means the time at which the peak concentration occurs. Broadly, the fraction remaining is the share of the starting amount still present when the sample was taken. As a reminder, the inhibition is the drop in the measured response relative to a control, in per cent. As for `CCCC(=O)c1c(O)c(CC2=C(O)C(C)(C)C(O)=C(C(C)=O)C2=O)c(O)c(Cc2c(O)c(CC3=C(O)C(C)(C)C(O)=C(C(C)=O)C3=O)c(O)c(C(=O)CCC)c2O)c1O` [dryocrassin ABBA, Dryocrassin ABBA], the CC50 in data set [1] was greater than 50 µM. Further, the IC50 in data set [2] is 16.1 µM; in [3], 14.7 µM; in data set [7], 0.8 ± 0.07 µM; in [10] it was 46.5 ± 1.1 µM; in data set [11], 18.6 ± 4.53 µM; in [13], 22.4 ± 0.73 µM. The IC50 is 0.4 µM in data set [14]; 13.5 µM in data set [15]; 16.5 µM in data set [18]; 1.31 ± 0.07 µM in data set [19]; 8.33 µM in data set [20]. For the same compound, the “MS (%) (Remaining after 30 min), Rat” value in data set [4] is greater than 99%. The “clinical signs and animal death” value in [5] is “No abnormal clinical signs and animal death”. The same compound gave an approximately lethal dose in [5] greater than 10 mg/kg. Besides, the “MS (%) (Remaining after 30 min), Mice” value in [6] is 68.3 ± 2.1%. Besides, the exposure (AUC) in data set [8] (IP 10 mg/kg, n = 3, 10 mg/kg) is 65960 ± 8630 ng·h/mL; in [8] (male, ICR, mouse, plasma, ip, 10 mg/kg, IP 10 mg/kg, n = 3, read-out: AUC) it was 65000 ng·h/mL; in [8] (male, ICR, mouse, plasma, other: intraperitoneal and oral (range over both arms), 10 mg/kg, in vivo, span over IP and PO 10 mg/kg (abstract), read-out: plasma exposure (AUC)) it was 19300 to 65000 ng·h/mL; in data set [8] (male, ICR, mouse, plasma, po, 10 mg/kg, PO 10 mg/kg, n = 3, read-out: AUC), 19300 ± 1420 ng·h/mL. Also, the Cmax was found to be 12800 ± 1790 ng/mL in data set [8] (setting [21]) and 3640 ± 570 ng/mL in data set [8] (setting [22]). Also, the Tmax in data set [8] (setting [21]) is 1.17 ± 0.76 h; in data set [8] (setting [22]), 0.67 ± 0.29 h. Further, the half-life in [8] (male, ICR, mouse, plasma, IP 10 mg/kg, n = 3, read-out: T1/2 (converted)) was 5.5 ± 0.56 h; in data set [8] (male, ICR, mouse, plasma, PO 10 mg/kg, n = 3, read-out: T1/2 (converted)), 12.6 ± 3.76 h; in data set [8] (male, ICR, mouse, plasma, other: intraperitoneal and oral (range over both arms), in vivo, span over IP and PO 10 mg/kg (abstract), read-out: half-life), 5.5 to 12.6 h. Besides, the share remaining at 4 h, 5 μM in data set [9] was 67 ± 7.29%; in data set [16], 29.7 ± 8.37%. Further, the “MS (%) (Remaining after 30 min), Hum” value in data set [12] was greater than 99%. This compound displayed an inhibition at 10 µM in [17] of 7.27%.
In data set [1], `CCCC(=O)c1c(O)c(CC2=C(O)C(C)(C)C(O)=C(C(C)=O)C2=O)c(O)c(CC2=C(O)C(C)(C)C(O)=C(C(C)=O)C2=O)c1O` [filixic acid ABA] had a CC50 greater than 50 µM. Moreover, the “clinical signs and animal death” value in data set [5] is “No abnormal clinical signs and animal death”. The compound further yielded an approximately lethal dose in data set [5] greater than 10 mg/kg. Besides, the IC50 in data set [7] was 4.56 ± 0.21 µM; in [10] (serially diluted compounds 3.125–100 μM, mean ± SEM, read-out: IC50, SARS-CoV-2 Mpro (3CL) activity), 39.6 ± 1.09 µM; in data set [11], 29.6 ± 2.48 µM; in data set [13], 25.9 ± 0.81 µM; in [19], 2.68 ± 0.1 µM.

The values above are taken from paper PMC8879496 (Pharmaceutics, 2022).
